Data: patent US8008077B2, “Photochemical internalization for delivery of molecules into the cytosol” (priority 2000, dated 2011)

Assays:
[1] = test system: THX cells; assay: Light-induced (PCI) transfection of THX cells with pEGFP-N1/polylysine complex, GFP expression by flow cytometry; assay type: cell-based, human; conditions: for "light before" approach compared with "light after" approach, poly-L-lysine mediated transfection: photosensitiser 2 μg/ml TPPS2a or 75 μg/ml TPPS4, pEGFP-N1/PLL complex 4 h
Experimental: (§1) The human melanoma cell line THX was established from tumour tissue obtained from a patient treated for metastatic malignant melanoma at the Norwegian Radium Hospital (Aamdal et al., 1986., Int. J. Cancer, 37, 579), and grown in RMPI 1640 (Gibco-BRL) supplemented with 10% FCS (Gibco-BRL) and 2 mM glutamine (Gibco-BRL). The human colon carcinoma cell line HCT 116 was obtained from American Type Culture Collection (ATCC no. CCL-247) and grown in RPMI 1640 medium supplemented with 10% foetal calf serum, 100 U/ml penicillin, […] streptomycin and 2 mM glutamine (all Gibco BRL, Paisley, UK).
Two different light sources were used for treatment of the cells, both consisting of a bank of 4 fluorescent tubes. […]
(§2) The cells were trypsinized, centrifuged, resuspended in 400 μl of culture medium and filtered through a 50 μm mesh nylon filter. Then the cells were analyzed by a FACS-Calibur (Becton Dickinson) flow cytometer. […] Fluorescein-fluorescence (for example green Fluorescent protein (GFP)) was measured through a 510-530 nm filter after excitation with an argon laser (200 mW) tuned on 488 nm. AlPcS2a was measured through a 670 nm longpass filter after excitation with a diode laser (50 mW) tuned on 635 nm. […] The data were analysed with CELLQuest Software (Becton Dickinson).
THX cells were treated with 20 μg/ml AlPcS2a for 18 hours, washed and incubated in sensitizer-free medium for 3 hours followed by 1 hour incubation with 5 μg pEGFP-N1/polylysine complex before light exposure for 1, 2, 3 or 4 minutes. […] GFP expression was analysed by flow cytometry 48 hours after light exposure. […]
THX cells were treated with 20 μg/ml AlPcS2a for 18 hours, washed and incubated in sensitizer-free medium for 4 hours before 3 minutes of light treatment. […] GFP expression was analysed by flow cytometry 48 hours after light exposure. […]

[2] = test system: HCT 116 cells; assay: Light-induced (PCI) transfection of HCT 116 cells with pEGFP-N1/polylysine complex, GFP expression by flow cytometry; assay type: cell-based, human
Experimental: as §1
Two different light sources were used for treatment of the cells, both consisting of a bank of 4 fluorescent tubes. Cells treated with TPPS4, TPPS2a, and 3-THPP (Porphyrin Products, Logan, Utah) were exposed to blue light (model 3026; Appl. Photophysics, London, UK) with a light intensity reaching the cells of 1.5 mW/cm^2 while cells treated with AlPcS2a (Porphyrin Products, Logan, Utah) were exposed to red light (Philips TL 20W/09) filtered through a Cinemoid 35 filter with a light intensity reaching the cells of 1.35 mW/cm^2.
[…] The cells were treated with pEGFP-N1 polylysine complex for 4 hours immediately before or after exposure to light. […]
as §2
The cells were treated with pEGFP-N1/polylysine complex for 4 hours immediately before or after exposure to light as indicated on FIG. 2. The expression of GFP was measured by flow cytometry 2 days after the light exposure. […]

`Oc1cccc(-c2c3nc(c(-c4cccc(O)c4)c4ccc([nH]4)c(-c4cccc(O)c4)c4nc(c(-c5cccc(O)c5)c5ccc2[nH]5)C=C4)C=C3)c1` [3-THPP] was tested, and the “increase in GFP expression with this photosensitizer” value ([1]; 0.25 μg/ml 3-THPP 18 h, light before 1 h pEGFP-N1/polylysine complex) was “only a minor increase in GFP expression”.

In the case of poly-D-lysine, the “PCI with the "light before" protocol, poly-D-lysine as transfection agent” value ([2]; HCT 116 cells, complex with pEGFP-N1, variable irradiation times) is reported as “works well”.

In the case of `O=S(=O)(O)c1ccc(-c2c3nc(c(-c4ccc(S(=O)(=O)O)cc4)c4ccc([nH]4)c(-c4ccc(S(=O)(=O)O)cc4)c4nc(c(-c5ccc(S(=O)(=O)O)cc5)c5ccc2[nH]5)C=C4)C=C3)cc1` [TPPS4], the “"light before" approach compared with "light after" approach, poly-L-lysine mediated transfection” value [1] is reported as “works slightly better” and the “"light before" approach compared with "light after" approach, poly-L-lysine mediated transfection” value ([2]; 75 μg/ml TPPS4, text prints THX cells, heading and FIG. 19 HCT 116 cells) is reported as “works as well as”.

`O=S(=O)(O)c1ccc(-c2c3nc(c(-c4ccc(S(=O)(=O)O)cc4)c4ccc([nH]4)c(-c4ccccc4)c4nc(c(-c5ccccc5)c5ccc2[nH]5)C=C4)C=C3)cc1` [TPPS2a, Tetraphenylporphine disulfonate] was tested, and the “"light before" approach compared with "light after" approach, poly-L-lysine mediated transfection” value [1] was “works as well as” and the “"light before" approach compared with "light after" approach, poly-L-lysine mediated transfection” value ([2]; HCT 116 cells, TPPS2a, pEGFP-N1/PLL complex 4 h) was “works as well as”.
